Values after ≈ are worked out from the molar mass of the structure shown. Active and inactive are the calls of the source. The rule behind the calls is not given here.
Legend:
[1] = test system: Candida albicans; assay: Antifungal activity against Candida albicans SC5314 assessed as fungal growth inhibition incubated for 48 hrs in presence of Ca2+ by broth microdilution method; format: functional, organism-based
[2] = test system: Candida albicans; assay: Antifungal activity against Candida albicans SC5314 assessed as fungal growth inhibition incubated for 48 hrs in presence of K+ by broth microdilution method; format: functional, organism-based
[3] = test system: Candida albicans; assay: Antifungal activity against Candida albicans SC5314 assessed as fungal growth inhibition incubated for 48 hrs in presence of Mg2+ by broth microdilution method; format: functional, organism-based
[4] = test system: Candida albicans; assay: Antifungal activity against Candida albicans SC5314 assessed as fungal growth inhibition incubated for 48 hrs in presence of Zn2+ by broth microdilution method; format: functional, organism-based
[5] = test system: Candida parapsilosis; assay: Antifungal activity against Candida parapsilosis 107 assessed as fungal growth inhibition incubated for 48 hrs by broth microdilution method; format: functional; conditions: Lodderomyces parapsilosis
[6] = test system: Aspergillus fumigatus; assay: Antifungal activity against Aspergillus fumigatus 023-12 assessed as fungal growth inhibition incubated for 48 hrs by broth microdilution method; format: functional
[7] = test system: Pichia kudriavzevii; assay: Antifungal activity against Candida krusei 471 assessed as fungal growth inhibition incubated for 48 hrs by broth microdilution method; format: functional
[8] = test system: Candida parapsilosis; assay: Antifungal activity against Candida parapsilosis ATCC22019 assessed as fungal growth inhibition incubated for 48 hrs by broth microdilution method; format: functional; conditions: Lodderomyces parapsilosis
[9] = test system: Cryptococcus neoformans; assay: Antifungal activity against Cryptococcus neoformans HN15 assessed as fungal growth inhibition incubated for 48 hrs by broth microdilution method; format: functional
[10] = test system: Cryptococcus neoformans; assay: Antifungal activity against Cryptococcus neoformans BJ3 assessed as fungal growth inhibition incubated for 48 hrs by broth microdilution method; format: functional
[11] = test system: Candida albicans; assay: Antifungal activity against FLC-resistant Candida albicans 304103 assessed as fungal growth inhibition incubated for 48 hrs by broth microdilution method; format: functional
[12] = test system: Candida albicans; assay: Antifungal activity against FLC-resistant Candida albicans 8 assessed as fungal growth inhibition incubated for 48 hrs by broth microdilution method; format: functional
[13] = test system: Candida albicans; assay: Antifungal activity against FLC-resistant Candida albicans 10 assessed as fungal growth inhibition incubated for 48 hrs by broth microdilution method; format: functional
[14] = test system: Candida albicans; assay: Antifungal activity against FLC-resistant Candida albicans 11 assessed as fungal growth inhibition incubated for 48 hrs by broth microdilution method; format: functional
[15] = test system: Candida albicans; assay: Antifungal activity against FLC-resistant Candida albicans 12 assessed as fungal growth inhibition incubated for 48 hrs by broth microdilution method; format: functional
[16] = test system: Candida albicans; assay: Antifungal activity against FLC-resistant Candida albicans 14 assessed as fungal growth inhibition incubated for 48 hrs by broth microdilution method; format: functional
[17] = test system: Candida albicans; assay: Antifungal activity against FLC-resistant Candida albicans 17 assessed as fungal growth inhibition incubated for 48 hrs by broth microdilution method; format: functional
[18] = test system: Candida albicans; assay: Antifungal activity against FLC-resistant Candida albicans 100 assessed as fungal growth inhibition incubated for 48 hrs by broth microdilution method; format: functional
[19] = test system: Candida albicans; assay: Antifungal activity against FLC-resistant Candida albicans 241 assessed as fungal growth inhibition incubated for 48 hrs by broth microdilution method; format: functional
[20] = test system: Candida albicans; assay: Antifungal activity against FLC-resistant Candida albicans 249 assessed as fungal growth inhibition incubated for 48 hrs by broth microdilution method; format: functional
[21] = test system: Candida albicans; assay: Antifungal activity against FLC-resistant Candida albicans 305 assessed as fungal growth inhibition incubated for 48 hrs by broth microdilution method; format: functional
[22] = test system: Candida albicans; assay: Antifungal activity against FLC-resistant Candida albicans 379 assessed as fungal growth inhibition incubated for 48 hrs by broth microdilution method; format: functional
[23] = test system: Candida albicans; assay: Antifungal activity against FLC-resistant Candida albicans 385 assessed as fungal growth inhibition incubated for 48 hrs by broth microdilution method; format: functional
[24] = test system: Candida albicans; assay: Antifungal activity against FLC-resistant Candida albicans 395 assessed as fungal growth inhibition incubated for 48 hrs by broth microdilution method; format: functional
[25] = test system: Candida albicans; assay: Antifungal activity against FLC-resistant Candida albicans 538 assessed as fungal growth inhibition incubated for 48 hrs by broth microdilution method; format: functional
[26] = test system: Candida albicans; assay: Antifungal activity against FLC-resistant Candida albicans 540 assessed as fungal growth inhibition incubated for 48 hrs by broth microdilution method; format: functional
[27] = test system: Candida albicans; assay: Antifungal activity against FLC-resistant Candida albicans 646 assessed as fungal growth inhibition incubated for 48 hrs by broth microdilution method; format: functional
[28] = test system: Candida albicans; assay: Antifungal activity against FLC-resistant Candida albicans 819 assessed as fungal growth inhibition incubated for 48 hrs by broth microdilution method; format: functional
[29] = test system: Candida albicans; assay: Antifungal activity against FLC-resistant Candida albicans 953 assessed as fungal growth inhibition incubated for 48 hrs by broth microdilution method; format: functional
[30] = test system: Candida albicans; assay: Antifungal activity against FLC-resistant Candida albicans 1221 assessed as fungal growth inhibition incubated for 48 hrs by broth microdilution method; format: functional
[31] = test system: Candida albicans; assay: Antifungal activity against FLC-resistant Candida albicans 5740 assessed as fungal growth inhibition incubated for 48 hrs by broth microdilution method; format: functional
[32] = test system: Candida albicans; assay: Antifungal activity against FLC-resistant Candida albicans 64548 assessed as fungal growth inhibition incubated for 48 hrs by broth microdilution method; format: functional
[33] = test system: Candida albicans; assay: Antifungal activity against FLC-resistant Candida albicans 512644 assessed as fungal growth inhibition incubated for 48 hrs by broth microdilution method; format: functional
[34] = test system: Candida albicans; assay: Antifungal activity against FLC-resistant Candida albicans 512681 assessed as fungal growth inhibition incubated for 48 hrs by broth microdilution method; format: functional
[35] = test system: Candida albicans; assay: Antifungal activity against FLC-resistant Candida albicans 605141 assessed as fungal growth inhibition incubated for 48 hrs by broth microdilution method; format: functional
[36] = test system: Candida albicans; assay: Antifungal activity against FLC-resistant Candida albicans 710419 assessed as fungal growth inhibition incubated for 48 hrs by broth microdilution method; format: functional
[37] = test system: Candida albicans; assay: Antifungal activity against FLC-resistant Candida albicans 710452 assessed as fungal growth inhibition incubated for 48 hrs by broth microdilution method; format: functional
[38] = test system: Candida albicans; assay: Antifungal activity against FLC-resistant Candida albicans 710506 assessed as fungal growth inhibition incubated for 48 hrs by broth microdilution method; format: functional
[39] = test system: Candida albicans; assay: Antifungal activity against FLC-resistant Candida albicans 710513 assessed as fungal growth inhibition incubated for 48 hrs by broth microdilution method; format: functional
[40] = test system: Candida albicans; assay: Antifungal activity against FLC-resistant Candida albicans 710554 assessed as fungal growth inhibition incubated for 48 hrs by broth microdilution method; format: functional
[41] = test system: Candida albicans; assay: Synergistic antifungal activity against FLC-resistant Candida albicans 5740 assessed as fractional inhibitory concentration index incubated for 48 hrs in presence of FLC by broth microdilution method; format: functional
[42] = test system: Candida albicans; assay: Inhibition of mature biofilm formation of Candida albicans SC5314 upto 16 ug/ml incubated for 24 hrs by XTT assay; format: functional, organism-based; conditions: dose <= 16.0 µg/ml
[43] = Cytotoxicity against HUVEC cells assessed as cell growth inhibition incubated for 24 hrs by CCK8 assay; format: toxicity, cell-based; conditions: human
[44] = test system: Candida albicans; assay: Antifungal activity against Candida albicans SC5314 infected in C57BL/6 mouse assessed as mean fungal burden at 2 mg/kg, ip measured after 46 hrs by plate count method (reference value: 6.890 log10CFU/ml); format: functional
[45] = test system: Candida albicans; assay: Antifungal activity against Candida albicans SC5314 infected in C57BL/6 mouse assessed as mean fungal burden at 2 mg/kg, ip measured after 46 hrs by plate count method (reference value: 6.902 log10CFU/ml); format: functional
[46] = Toxicity in C57BL/6 mouse infected with Candida albicans SC5314 assessed as mean survival time at 2 mg/kg, ip (reference value: 5 day); format: organism-based; conditions: in vivo, 120 h

Question: With `CCN(CC)c1ccc(C(NC(=O)C(C)C)c2ccc3cccnc3c2O)cc1` (stereo not drawn) as the molecule, how does the “growth inhibition (GI)” value [1] read?
Answer: Active

Question: And the “growth inhibition (GI)” value [2]?
Answer: Active

Question: And the “growth inhibition (GI)” value [3]?
Answer: Active

Question: What about the “growth inhibition (GI)” value [4] of the same molecule?
Answer: Active

Question: And the MIC [5]?
Answer: 0.125 µg/mL (≈ 0.319 µM)

Question: And the MIC [6]?
Answer: 0.5 µg/mL (≈ 1.28 µM)

Question: And the MIC [7]?
Answer: 0.032 µg/mL (≈ 0.0817 µM)

Question: And the MIC [8]?
Answer: 0.125 µg/mL (≈ 0.319 µM)

Question: And the MIC [9]?
Answer: 0.063 µg/mL (≈ 0.161 µM)

Question: What about the MIC [10] of the same molecule?
Answer: 0.063 µg/mL (≈ 0.161 µM)

Question: And the MIC [11]?
Answer: 0.25 µg/mL (≈ 0.639 µM)

Question: And the MIC [12]?
Answer: 0.125 µg/mL (≈ 0.319 µM)

Question: And the MIC [13]?
Answer: 0.125 µg/mL (≈ 0.319 µM)

Question: And the MIC [14]?
Answer: 0.25 µg/mL (≈ 0.639 µM)

Question: And the MIC [15]?
Answer: 0.25 µg/mL (≈ 0.639 µM)

Question: What about the MIC [16] of the same molecule?
Answer: 0.125 µg/mL (≈ 0.319 µM)

Question: And the MIC [17]?
Answer: 0.5 µg/mL (≈ 1.28 µM)

Question: And the MIC [18]?
Answer: 0.125 µg/mL (≈ 0.319 µM)

Question: What about the MIC [19] of the same molecule?
Answer: 0.5 µg/mL (≈ 1.28 µM)

Question: What about the MIC [20] of the same molecule?
Answer: 0.25 µg/mL (≈ 0.639 µM)

Question: What about the MIC [21] of the same molecule?
Answer: 0.5 µg/mL (≈ 1.28 µM)

Question: What about the MIC [22] of the same molecule?
Answer: 0.25 µg/mL (≈ 0.639 µM)

Question: And the MIC [23]?
Answer: 0.125 µg/mL (≈ 0.319 µM)

Question: What about the MIC [24] of the same molecule?
Answer: 0.125 µg/mL (≈ 0.319 µM)

Question: And the MIC [25]?
Answer: 0.25 µg/mL (≈ 0.639 µM)

Question: What about the MIC [26] of the same molecule?
Answer: 0.25 µg/mL (≈ 0.639 µM)

Question: What about the MIC [27] of the same molecule?
Answer: 0.125 µg/mL (≈ 0.319 µM)

Question: What about the MIC [28] of the same molecule?
Answer: 0.125 µg/mL (≈ 0.319 µM)

Question: And the MIC [29]?
Answer: 0.5 µg/mL (≈ 1.28 µM)

Question: What about the MIC [30] of the same molecule?
Answer: 0.25 µg/mL (≈ 0.639 µM)

Question: What about the MIC [31] of the same molecule?
Answer: 0.063 µg/mL (≈ 0.161 µM)

Question: What about the MIC [32] of the same molecule?
Answer: 0.5 µg/mL (≈ 1.28 µM)

Question: What about the MIC [33] of the same molecule?
Answer: 0.25 µg/mL (≈ 0.639 µM)

Question: And the MIC [34]?
Answer: 0.25 µg/mL (≈ 0.639 µM)

Question: What about the MIC [35] of the same molecule?
Answer: 0.5 µg/mL (≈ 1.28 µM)

Question: What about the MIC [36] of the same molecule?
Answer: 0.5 µg/mL (≈ 1.28 µM)

Question: What about the MIC [37] of the same molecule?
Answer: 0.125 µg/mL (≈ 0.319 µM)

Question: And the MIC [38]?
Answer: 1 µg/mL (≈ 2.55 µM)

Question: What about the MIC [39] of the same molecule?
Answer: 0.5 µg/mL (≈ 1.28 µM)

Question: What about the MIC [40] of the same molecule?
Answer: 0.5 µg/mL (≈ 1.28 µM)

Question: And the “fractional inhibitory concentration index (FICI)” value [41]?
Answer: 0.312

Question: What about the inhibition [42] of the same molecule?
Answer: inactive

Question: What about the IC50 at 24 h [43] of the same molecule?
Answer: 67.8 µg/mL (≈ 173 µM)

Question: And the Activity [44]?
Answer: 6.283 log10CFU/g

Question: What about the Activity [45] of the same molecule?
Answer: 6.318 log10CFU/ml

Question: And the Survival [46]?
Answer: 6.5 days

Question: With `Oc1c(I)cc(Cl)c2cccnc12` [CLIOQUINOL] as the molecule, how does the “growth inhibition (GI)” value [1] read?
Answer: Active

Question: What about the “growth inhibition (GI)” value [2] of the same molecule?
Answer: Active

Question: And the “growth inhibition (GI)” value [3]?
Answer: Active

Question: What about the “growth inhibition (GI)” value [4] of the same molecule?
Answer: Active

Question: And the MIC [5]?
Answer: 0.5 µg/mL (≈ 1.64 µM)

Question: And the MIC [6]?
Answer: 0.25 µg/mL (≈ 0.818 µM)

Question: What about the MIC [7] of the same molecule?
Answer: 0.25 µg/mL (≈ 0.818 µM)

Question: And the MIC [8]?
Answer: 0.5 µg/mL (≈ 1.64 µM)

Question: What about the MIC [9] of the same molecule?
Answer: 0.125 µg/mL (≈ 0.409 µM)

Question: And the MIC [10]?
Answer: 0.063 µg/mL (≈ 0.206 µM)

Question: What about the Activity [44] of the same molecule?
Answer: 6.683 log10CFU/g

Question: What about the Survival [46] of the same molecule?
Answer: 5 days

— ChEMBL document CHEMBL5375952, “Discovery of Novel 8-Hydroxyquinoline Derivatives with Potent In Vitro and In Vivo Antifungal Activity” (J Med Chem, 2023)
